Measurements: PubChem BioAssay AID330 (DTP/NCI, 2004)
Values joined by “and” are separate entries in the source; they are usually repeats but may differ in a detail not shown here. Identical values can stand only once. Inconclusive results and toxic doses are left out. How the source made its calls: active means survival T/C of 150% or more; inactive means T/C below 125% in these data. Peptide text beside a SMILES is read from it.

System: P388 leukemia ip, CD2F1 mice, survival T/C
Assay: NCI In Vivo Anticancer Drug Screen. Data for tumor model P388 Leukemia (intraperitoneal) in CD2F1 (CDF1) mice
Settings: endpoint: median survival time, higher = longer survival
Procedure, shortened: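 Mice carrying the transplanted tumor received test compound or vehicle. Survival was recorded in each group, and the value is the treated-group measurement divided by that of the vehicle-treated control group.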

[1] = dose: 100.0 mg/kg/injection, schedule: Q04DX003 (ip), vehicle: Klucel (hydroxypropylcellulose) (HPC)
[2] = dose: 200.0 mg/kg/injection, schedule: Q04DX003 (ip), vehicle: Klucel (hydroxypropylcellulose) (HPC)
[3] = dose: 400.0 mg/kg/injection, schedule: Q04DX003 (ip), vehicle: Klucel (hydroxypropylcellulose) (HPC)
[4] = dose: 50.0 mg/kg/injection, schedule: Q01DX005 (ip), vehicle: saline with Tween-80
[5] = dose: 100.0 mg/kg/injection, schedule: Q01DX005 (ip), vehicle: saline with Tween-80
[6] = dose: 200.0 mg/kg/injection, schedule: Q01DX005 (ip), vehicle: saline with Tween-80
[7] = dose: 25.0 mg/kg/injection, schedule: Q01DX009 (ip), vehicle: saline with Tween-80
[8] = dose: 100.0 mg/kg/injection, schedule: Q01DX001 (ip), vehicle: Klucel (hydroxypropylcellulose) (HPC)
[9] = dose: 200.0 mg/kg/injection, schedule: Q01DX001 (ip), vehicle: Klucel (hydroxypropylcellulose) (HPC)
[10] = dose: 400.0 mg/kg/injection, schedule: Q01DX001 (ip), vehicle: Klucel (hydroxypropylcellulose) (HPC)
[11] = dose: 60.0 mg/kg/injection, schedule: Q01DX005 (ip), vehicle: saline
[12] = dose: 120.0 mg/kg/injection, schedule: Q01DX005 (ip), vehicle: saline
[13] = dose: 240.0 mg/kg/injection, schedule: Q01DX005 (ip), vehicle: saline
[14] = dose: 50.0 mg/kg/injection, schedule: Q01DX005 (ip), vehicle: Klucel (hydroxypropylcellulose) (HPC)
[15] = dose: 100.0 mg/kg/injection, schedule: Q01DX005 (ip), vehicle: Klucel (hydroxypropylcellulose) (HPC)
[16] = dose: 200.0 mg/kg/injection, schedule: Q01DX005 (ip), vehicle: Klucel (hydroxypropylcellulose) (HPC)
[17] = dose: 50.0 mg/kg/injection, schedule: Q01DX009 (ip), vehicle: saline

Measured: T/C

O=[N+]([O-])c1ccc(/C=C/C=C\c2cccc(S(=O)(=O)F)c2)c(Cl)c1
inactive: [1] 90 % of control | [2] 90 % of control | [3] 90 % of control

COC1C(Cl)CC(/C(=C\C2CCCCC2)C(=O)O)CC1Cl (stereo not drawn)
inactive: [4] 100 % of control | [5] 103 % of control | [6] 101 % of control

CC12CCC3C(CCC4(O)C=CCCC34C=O)C1(O)CC(O)C2c1ccc(=O)oc1 (stereo not drawn)
inactive: [7] 97 % of control | dose: 50.0 mg/kg/injection, schedule: Q01DX009 (ip), vehicle: saline with Tween-80 91 % of control | dose: 100.0 mg/kg/injection, schedule: Q01DX009 (ip), vehicle: saline with Tween-80 91 % of control | dose: 200.0 mg/kg/injection, schedule: Q01DX009 (ip), vehicle: saline with Tween-80 91 % of control

O=C1OC(c2ccccc2)=N/C1=C/c1c(Cl)n(-c2ccccc2)c2ccccc12
inactive: [8] 96 % of control | [9] 94 % of control | [10] 93 % of control

NC(N)=N/N=C/C(O)C(O)C(O)C(O)CO (stereo not drawn)
inactive: [11] 100 % of control | [12] 100 % of control | [13] 106 % of control

CC(N)C(=O)NC(Cc1ccc(O)cc1)C(N)=O (stereo not drawn) (H-Ala-Tyr-NH2; configuration not given here)
inactive: [14] 108 % of control | [15] 105 % of control | [16] 100 % of control

CCOC(=O)c1cnc2cc3c(cc2c1Nc1cccc(C)c1)OCO3
inactive: dose: 60.0 mg/kg/injection, schedule: Q01DX005 (ip), vehicle: Klucel (hydroxypropylcellulose) (HPC) 95 % of control | dose: 120.0 mg/kg/injection, schedule: Q01DX005 (ip), vehicle: Klucel (hydroxypropylcellulose) (HPC) 99 % of control | dose: 240.0 mg/kg/injection, schedule: Q01DX005 (ip), vehicle: Klucel (hydroxypropylcellulose) (HPC) 91 % of control

CCn1c2ccccc2c2ccc(N=Cc3ccccc3[N+](=O)[O-])cc21
inactive: [1] 98 % of control | [2] 97 % of control | [3] 96 % of control

Cc1ccc(SSC(=S)N2CCOCC2)cc1
inactive: [8] 104 % of control | [9] 96 % of control | [10] 101 % of control

Clc1cccc2sc(Nc3c4ccccc4nc4ccccc34)nc12
inactive: dose: 12.5 mg/kg/injection, schedule: Q04DX002 (ip), vehicle: distilled water + Tween-80 95 % of control | dose: 25.0 mg/kg/injection, schedule: Q04DX002 (ip), vehicle: distilled water + Tween-80 89 % of control | dose: 50.0 mg/kg/injection, schedule: Q04DX002 (ip), vehicle: distilled water + Tween-80 95 % of control | dose: 100.0 mg/kg/injection, schedule: Q04DX002 (ip), vehicle: distilled water + Tween-80 97 % of control | dose: 200.0 mg/kg/injection, schedule: Q04DX002 (ip), vehicle: distilled water + Tween-80 97 % of control | dose: 400.0 mg/kg/injection, schedule: Q04DX002 (ip), vehicle: distilled water + Tween-80 97 % of control

O=C1C(=O)c2ccccc2C(O)=C1CC=C(Cl)Cl
inactive: dose: 6.2 mg/kg/injection, schedule: Q01DX009 (ip), vehicle: water 120 % of control | dose: 12.5 mg/kg/injection, schedule: Q01DX009 (ip), vehicle: water 120 % of control | dose: 25.0 mg/kg/injection, schedule: Q01DX009 (ip), vehicle: water 110 % of control | dose: 25.0 mg/kg/injection, schedule: Q01DX009 (oral), vehicle: water 105 % of control | dose: 50.0 mg/kg/injection, schedule: Q01DX009 (ip), vehicle: water 120 % of control | dose: 50.0 mg/kg/injection, schedule: Q01DX009 (oral), vehicle: water 120 % of control | dose: 100.0 mg/kg/injection, schedule: Q01DX009 (oral), vehicle: water 120 % of control

CC(/C=N\NC(=S)SCc1ccccc1)=N/N=C(N)N
inactive: dose: 6.25 mg/kg/injection, schedule: Q01DX009 (ip), vehicle: saline with Tween-80 101 % of control | dose: 12.5 mg/kg/injection, schedule: Q01DX009 (ip), vehicle: saline with Tween-80 95 % of control | [7] 101 % of control | [17] 91 % of control | dose: 100.0 mg/kg/injection, schedule: Q01DX009 (ip), vehicle: saline 92 % of control

COc1ccccc1C(Nc1ccc([N+](=O)[O-])cc1)P(=O)(Oc1ccccc1)Oc1ccccc1 (stereo not drawn)
inactive: [14] 95 % of control | [15] 106 % of control | [16] 95 % of control

CCN(CC)CCOc1ccc(C)c(C)c1
inactive: [4] 106 % of control | [5] 103 % of control

COc1ccc(C2/C(=N/O)CCCC2C)cc1 (stereo not drawn)
inactive: [4] 94 % of control | [5] 97 % of control | [6] 87 % of control

N#CNC1=C(C#N)C(c2ccccc2)CC(=O)N1 (stereo not drawn)
inactive: dose: 60.0 mg/kg/injection, schedule: Q01DX005 (ip), vehicle: saline with Tween-80 97 % of control | dose: 120.0 mg/kg/injection, schedule: Q01DX005 (ip), vehicle: saline with Tween-80 101 % of control | dose: 240.0 mg/kg/injection, schedule: Q01DX005 (ip), vehicle: saline with Tween-80 100 % of control

COc1cc(O)c(C/C=C/c2ccccc2)cc1O
inactive: dose: 2.5 mg/kg/injection, schedule: Q01DX009 (ip), vehicle: saline with Tween-80 102 % of control | dose: 5.0 mg/kg/injection, schedule: Q01DX009 (ip), vehicle: saline with Tween-80 105 % of control | dose: 10.0 mg/kg/injection, schedule: Q01DX009 (ip), vehicle: saline with Tween-80 103 % of control

CC(=O)NC(CC(C)C)C(=O)NC(CC(C)C)C(=O)NC(C=O)CCCN=C(N)N (stereo not drawn)
inactive: dose: 100.0 mg/kg/injection, schedule: Q01DX001 (ip), vehicle: saline 106 % of control | dose: 200.0 mg/kg/injection, schedule: Q01DX001 (ip), vehicle: saline 105 % of control

CCOc1cc2c(cc1C(C)c1ccc(OC)c(C)c1)OCO2 (stereo not drawn)
inactive: dose: 12.5 mg/kg/injection, schedule: Q01DX005 (ip), vehicle: Klucel (hydroxypropylcellulose) (HPC) 92 % of control | dose: 25.0 mg/kg/injection, schedule: Q01DX005 (ip), vehicle: Klucel (hydroxypropylcellulose) (HPC) 91 % of control | [14] 102 % of control and 111 % of control | [15] 101 % of control and 112 % of control | [16] 101 % of control and 114 % of control

c1ccc2c(c1)CN1CCN=C1N2
inactive: dose: 25.0 mg/kg/injection, schedule: Q01DX009 (ip), vehicle: saline 100 % of control | [17] 94 % of control

C1OC2C1OC1COC12 (stereo not drawn)
inactive: [11] 108 % of control | [12] 100 % of control | [13] 107 % of control

Cc1ccc(C)[nH]1
inactive: dose: 12.5 mg/kg/injection, schedule: Q01DX001 (ip), vehicle: alcohol 109 % of control | dose: 25.0 mg/kg/injection, schedule: Q01DX001 (ip), vehicle: alcohol 111 % of control | dose: 50.0 mg/kg/injection, schedule: Q01DX001 (ip), vehicle: alcohol 101 % of control and 102 % of control

C[S+](C)CCCNC(=O)c1csc(-c2cscn2)n1
inactive: dose: 6.25 mg/kg/injection, schedule: Q01DX005 (ip), vehicle: water 101 % of control | dose: 12.5 mg/kg/injection, schedule: Q01DX005 (ip), vehicle: water 96 % of control | dose: 25.0 mg/kg/injection, schedule: Q01DX005 (ip), vehicle: water 101 % of control
